“Also recorded” adds a separate entry of the source. Where two headings read alike, the source gives them in different places.
Assays:
aldehyde oxidase [1] = experiment: Substrate specificity of the conversion of RPdR to RUdR; assay type: in vitro ADME, rat; settings: for Conversion of RPdR to RUdR / Products of the reaction: substrate 180 μM; for Conversion of RPdR to RUdR: 2 to 4 separate experiments, in nmol/mg/min
Experimental: (§1) Rat hepatic tissue was washed with ice-cold 1.15% KCl and blotted dry. The tissue was then homogenized with a tissue homogenizer, in a volume of 1.15% KCl that was 3 times the tissue weight, to form a 25% (w/v) homogenate. The homogenate was then centrifuged at 10,000 g for 10 minutes at 4° C. The resulting supernatant was filtered through Miracloth (similar to cheese cloth) then dialyzed overnight against 50 mM Tris-HCl buffer pH 7.5 and stored at -80° C. before use. Rat hepatocytes were obtained by a perfusion technique then the cells were extracted with 10 mM phosphate buffer, pH 7.5, containing 1M KCl and dialyzed for 4 hours against 50 mM Tris-HCl buffer pH 7.5.
(§2) For the standard assay condition, the reaction mixture contained 50 mM Tris-HCl, pH 7.5, 1 mM EDTA, 180 μM of IPdR (or its analogs) and approximately 0.01 mg protein of 10,000 g supernatant of tissue homogenate in a final volume of 500 μl and the incubation was at 37° C. for 10 minutes unless specified otherwise. 300 μl of reaction mixture was removed at the end of incubation and mixed with 630 μl acetonitrile then agitated. The precipitated protein were removed by centrifugation and the supernatant was lyophilized to dryness. The samples were reconstituted to the original aliquot volume with the HPLC mobile phase buffer and analyzed on a Alltech RP-18 column. IPdR, IUdR and IU were detected at a UV absorption wavelength of 230 nm, and IPdR was also detected at a UV absorption wavelength of 335 nm. The mobile phase was 10% acetonitrile/90%mM ammonium acetate, pH 6.8 and the flow rate was 1 ml/minute. Standard curves of IPdR and IUdR were established from the integration value of known concentrations.
(§3) Several 2-pyrimidinone deoxyribose analogs were examined for the conversion to their deoxyuridine counterparts. […] Nevertheless the relative Vmax for IPdR in the reaction at pH 7.5 and pH 9.5 is the same. […] The synthetic substrates for aldehyde oxidase appear to be better than its natural substrates, N^1 -methylnicotinamide and acetaldehyde, as judged by the potency of inhibition of N^1 -methylnicotinamide and acetaldehyde to the IPdR oxidation reaction (Table IV). The rate of reactivity of the liver enzyme with different IPdR analogs follows the order EPdR, IP, IPdR, 5-bromo-2-pyrimidinone deoxyribose (BPdR) and 5-methyl-2-pyrimidinone deoxyribose (MPdR) or 5-ethyl-2-pyrimidinone deoxyribose (EtPdR) (Table V). Electronegative substituents in the 5-position seemed to increase the substrate activity in this oxidation reaction.
Substrate specificity of the conversion of […]

[2] = Toxicity of FU and FP in BDF1 mice; assay type: in vivo; settings: mouse, in vivo, po, daily, Day 1,2,3,4,5
Experimental: (§4) BDF1 mice were administered daily oral dosages of either 50, 75 or 100 mg/kg of FU or 100, 150 or 200 mg/kg of FP. The survival rates of each are presented in chart and graphic forms in Table VI and FIGS. 2 and 3.

BDF1 mice = experiment: Toxicity of FU and FP in BDF1 mice; assay type: in vivo; settings: for Death/Total: Day 1,2,3,4,5
Experimental: as §4

P388-R leukemia cells = experiment: Survival time of mice bearing P388-R leukemia cells; assay type: in vivo, mouse; settings: for Cures/Total / ILS (increase in life span over controls): daily on Day 1,2,3,4,5
Experimental: (§5) Mice were injected with 100,000 P388-R leukemia cells to induce a leukemia. These cells were resistant to Adriamycin. Daily treatments of 25 and 50 mg/kg FU and 50 and 100 mg/kg FP were given orally to these leukemic mice and the duration of survival was measured. The results are given in tabular and graphic form in Table VII and FIG. 4.
Inoculum: 10^6 P388R cells into each mouse (i.p.)

colon 38 cells = experiment: Colon 38 tumor weight in mice; assay type: in vivo, mouse; settings: FU 25 and 50, FP 50 and 100 mg/kg daily oral
Experimental: (§6) Mice were injected with colon 38 cells and were either not treated or treated with daily treatments of 25 and 50 mg/kg FU and 50 and 100 mg/kg FP were given orally to the mice and the change in tumor weight was measured over time.

hepatic aldehyde oxidase [3] = experiment: Conversion of prodrugs to active compound in vivo
Source text: (§7) As most nucleosides and nucleoside bases include keto groups in their formula and many are structurally related to the structure of uracil, it is expected that bio-affecting compounds which are analogs of nucleosides and nucleoside bases are prime candidates for bio-affecting compounds for which prodrugs in accordance with the present invention can be designed, metabolizable by hepatic aldehyde oxidase into such compounds. Thus, in addition to uracil and uridine analogs, analogs of other nucleosides and nucleoside bases, such as cytidine, guanosine, 6-azauridine and 8-azaguanine analogs, may be used as the basis of the formation of prodrugs in accordance with the present invention. Examples of bio-affecting compounds in this category include ddG, DHPG, ACV, ddI, D4T and AZT.

Transgenic mice = experiment: Treatment of transgenic mice expressing SV40 large tumor antigen; assay type: in vivo, mouse
Experimental: Transgenic mice obtained according to the method of Sepulveda et al., Cancer Research 49:6108-6117 (1989) were administered beginning at nine weeks after birth in a female and male, wherein the treatment group received 100 mg/kg two times per day, once per week.

[4] = test system: leukemia and colon cancer; experiment: Therapeutic effectiveness of FP versus FU in leukemia and colon cancer; assay type: in vivo, mouse; settings: oral FP
Source text: There are other occasions besides the treatment of liver-associated diseases when the administration of a prodrug will be preferred to the administration of the bio-affecting compound which is formed from such prodrugs. For example, many drugs are not orally administrable for any of a variety of reasons. Oral administration of a prodrug from which the active compound is released in the liver will avoid most of the disadvantages of oral administration of the active compound. Thus, for example, FU is a well-known anti-cancer drug which cannot be administered orally. FP is a prodrug which is metabolizabie by hepatic aldehyde oxidase to FU. FP may be given orally to a subject.
as §5, §6

hepatic aldehyde oxidase [5] = experiment: Metabolism of prodrugs by hepatic aldehyde oxidase in vitro / in vivo; assay type: in vitro ADME
Source text: as §7

[6] = cited from earlier work; for catabolism to the free base: followed by dehalogenation; for cytotoxicity limiting effective use as radiosensitizer: in vivo
[7] = test system: metastatic prostate cancer; settings: cited from earlier work
aldehyde oxidase [8] = settings: cited from earlier work
IPdR oxidase = experiment: Effect of inhibitors on the oxidation of IPdR to IUdR by liver homogenate; assay type: biochemical, rat; settings: for product inhibition: at 50 mM; for IC50: liver homogenate, read-out: IC50 (concentration at 50% inhibition of the conversion of IPdR to IUdR)
Experimental: as §1, §2

[9] = Michaelis constant / Vmax of 2-pyrimidinone deoxyribose analogs with the liver enzyme; assay type: biochemical, rat; settings: rat, liver aldehyde oxidase
Experimental: as §1, §2, §3

## O=c1ncc(I)c[nH]1 [IP, 5-iodo-2-pyrimidinone]
Aldehyde oxidase [1]; in words
  substrate quality for aldehyde oxidase: excellent substrate
Aldehyde oxidase [1]
  Conversion of RPdR to RUdR: 18 ± 3

## O=c1[nH]cc(F)c(=O)[nH]1 [FU, 5-fluoro uracil, reference compound]
[2]
  LD50: 70 mg/kg
BDF1 mice; 50 mg/kg p.o.
  Death/Total: 5/5
BDF1 mice; 75 mg/kg p.o.
  Death/Total: 2/5
BDF1 mice; 100 mg/kg p.o.
  Death/Total: 1/5
P388-R leukemia cells; 25 mg/kg oral
  Cures/Total: 0/5
  ILS (increase in life span over controls): 5%
P388-R leukemia cells; 50 mg/kg oral
  Cures/Total: 0/5
  ILS (increase in life span over controls): 25%
Colon 38 cells
  reduction in tumor size or reduction in its growth rate, FU versus FP: comparable between FU and FP

## Oc1ncc(F)cn1 [FP, 5-fluoro-2-pyrimidinone]
Hepatic aldehyde oxidase [3]
  metabolism to FU by hepatic aldehyde oxidase in vivo: metabolizable to FU
Transgenic mice; after week 13
  weight gain, male and female: significantly decreased weight gain
Transgenic mice; female, 100 mg/kg two times per day, once per week
  body weight increase, female: slower increase in body weight
Transgenic mice; female, versus control, which died at week 16
  survival, female: lived longer; also recorded: survived the control rat
Transgenic mice; male, 100 mg/kg two times per day, once per week
  body weight increase, male: slower increase in body weight
Transgenic mice; male, inferred from slower body weight increase
  survival, male: longer survival than control
[2]
  LD50: 180 mg/kg
BDF1 mice; 100 mg/kg p.o.
  Death/Total: 5/5
BDF1 mice; 150 mg/kg p.o.
  Death/Total: 4/5
BDF1 mice; 200 mg/kg p.o.
  Death/Total: 0/5
BDF1 mice; oral, even when higher dosages were administered
  toxicity of FP compared with FU: considerably less
[4]
  effectiveness of FP compared with FU: essentially the same as FU
Aldehyde oxidase [1]
  Conversion of RPdR to RUdR: 20
P388-R leukemia cells; 50 mg/kg oral
  Cures/Total: 0/5
  ILS (increase in life span over controls): 0%
P388-R leukemia cells; 100 mg/kg oral
  Cures/Total: 0/5
  ILS (increase in life span over controls): 30%
P388-R leukemia cells; FU 25 and 50, FP 50 and 100 mg/kg oral
  survival time using FP compared to FU: as long using FP compared to FU
Hepatic aldehyde oxidase [5]
  metabolism to FU by hepatic aldehyde oxidase in vitro: metabolizable to FU
Colon 38 cells
  reduction in tumor size or reduction in its growth rate, FU versus FP: comparable between FU and FP

## O=c1[nH]c(=O)n([C@H]2C[C@H](O)[C@@H](CO)O2)cc1Br [BUdR, 5-bromo-deoxyuridine]
[6]
  catabolism to the free base: rapid catabolism
  cytotoxicity limiting effective use as radiosensitizer: limited by their cytotoxicity

## O=c1[nH]c(=O)n([C@H]2C[C@H](O)[C@@H](CO)O2)cc1I [IUdR, iodo-deoxyuridine]
[6]
  catabolism to the free base: rapid catabolism
  cytotoxicity limiting effective use as radiosensitizer: limited by their cytotoxicity
[6]; systemic use
  systemic toxicity limiting clinical usage: limited its clinical usage

## Cc1ccc(C(=O)Nc2ccc(S(=O)(=O)O)c3cc(S(=O)(=O)O)cc(S(=O)(=O)O)c23)cc1NC(=O)c1cccc(NC(=O)Nc2cccc(C(=O)Nc3cc(C(=O)Nc4ccc(S(=O)(=O)O)c5cc(S(=O)(=O)O)cc(S(=O)(=O)O)c45)ccc3C)c2)c1 [suramin]
[7]; bolus
  effectiveness of bolus dosages: significantly less effective
[7]; human trials, metastatic prostate cancer
  effective anti-cancer dosage relative to dosage resulting in paralysis: very close to the dosage resulting in paralysis

## N[C@@H](CS)C(=O)O [Cysteine]
Aldehyde oxidase [8]; at 5 mM
  inhibition of aldehyde oxidase activity: no significant inhibition
Aldehyde oxidase [8]; at 50 mM
  inhibition of aldehyde oxidase activity: potent inhibition
IPdR oxidase
  product inhibition: Approximately 40%
  IC50: > 50000 µM

## NC(CO)(CO)CO [Tris buffer]
Aldehyde oxidase [8]; literature
  stimulation of aldehyde oxidase activity: stimulated by potassium ferricyanide and Tris buffer

## C[n+]1cccc(C(N)=O)c1 [N^1 -methylnicotinamide]
Aldehyde oxidase [8]; to N1-methyl-2-pyridone-5-carboxamide and N1-methyl-4-pyridone-3-carboxamide
  conversion by hepatic aldehyde oxidase: converts N^1 -methylnicotinamide
IPdR oxidase
  IC50: 1000 µM

## OO [Hydrogen peroxide]
IPdR oxidase
  IC50: 10000 µM

## C#Cc1cnc(=O)n([C@H]2C[C@H](O)[C@@H](CO)O2)c1 [EPdR, 5-ethynyl-2-pyrimidinone-deoxyribose]
[9]; pH 7.5
  Km: 77 µM
[9]; pH 9.5
  Km: 46 µM
Aldehyde oxidase [1]
  Conversion of RPdR to RUdR: 20 ± 4

## CCCC(C(=O)OCCN(CC)CC)(c1ccccc1)c1ccccc1 [SKF-525A]
IPdR oxidase
  IC50: 30 µM

## Cc1cnc(=O)n([C@H]2C[C@H](O)[C@@H](CO)O2)c1 [MPdR, 5-methyl-2-pyrimidinone-deoxyribose]
Aldehyde oxidase [1]
  Products of the reaction: not detected
  Conversion of RPdR to RUdR: < 0.1

## OCCS [Mercaptoethanol, 2-mercaptoethanol]
Aldehyde oxidase [8]; literature
  inhibition of aldehyde oxidase activity: could be inhibited
IPdR oxidase
  IC50: 1800 µM

## NO [Hydroxyl amine]
IPdR oxidase
  IC50: 1000 µM

## O=c1ncc(Br)cn1[C@H]1C[C@H](O)[C@@H](CO)O1 [BPdR, 5-bromo-2-pyrimidinone-deoxyribose]
Aldehyde oxidase [1]
  Conversion of RPdR to RUdR: 7 ± 2

## CCCCS [1-Butane thiol]
IPdR oxidase
  product inhibition: Approximately 25%
  IC50: > 50000 µM

## O[C@H](CS)[C@H](O)CS (racemic) [Dithiothreitol]
Aldehyde oxidase [8]; literature
  inhibition of aldehyde oxidase activity: could be inhibited
IPdR oxidase
  IC50: 100 µM

## CCc1cnc(=O)n([C@H]2C[C@H](O)[C@@H](CO)O2)c1 [EtPdR, 5-ethyl-2-pyrimidinone-deoxyribose]
Aldehyde oxidase [1]
  Products of the reaction: not detected
  Conversion of RPdR to RUdR: < 0.1

## CC=O [Acetaldehyde]
Aldehyde oxidase [8]; literature
  inhibition of aldehyde oxidase activity: inhibited by acetaldehyde
IPdR oxidase
  IC50: 5000 µM

Source: US5728684A, “Determination of prodrugs metabolizable by the liver and therapeutic use thereof” (priority 1994, dated 1998)
